# According to patent US20230147021A1, “POLYSULFIDE STABILIZATION” (University Public Corporation Osaka, priority 2020, published 2023):
# What was measured:
# [1] = reactivity with cysteine hydropolysulfide, adducts by LC-ESI-MS/MS; format: physicochemical; conditions: 1 mM agent, one hour at 37° C., CysS-(S)n—H from 100 μM cystine and 300 μM Na2S2; FIG. 10
# Protocol: The reactivity of TME-IAM with respect to cysteine hydropolysulfide [CysS-(S)n—H] was verified as compared to HPE-IAM as indicated below.
# CysSSH/CysS-(S)n—H which was prepared by incubating 100 μM cystine and 300 μM Na2S2 for 5 minutes at 37° C. was made to react with TME-IAM or HPE-IAM (1 mM each) for one hour at 37° C.
# Next, its reaction mixture was provided to the LC-ESI-MS/MS analysis and respective adducts for CysSH/CysS-(S)n—H and HS^− (bis-S-adduct) were detected.
# Incidentally, the concentration of each compound as sulfur is calculated according to the following formula: a concentration as sulfur=a concentration as the compound×the number of sulfur atoms in the compound (for example, in a case of CysSSH, the concentration as sulfur=2×[CysSSH]). Referring to FIG. 10, the concentrations of each adduct as the compound and sulfur are indicated as a bar with slanted stripes and a bar without stripes, respectively.
# [2] = stabilization test for active sulfur molecules (residual GS-SS-SG by LC-MS/MS); format: physicochemical; conditions: 1 mM alkylating agent, 10 μM GS-SS-SG, pH 7.0, 37° C., FIG. 6; for active sulfur molecules stabilization (inhibition of GS-SS-SG autolysis): up to 4 hours
# Protocol: Next, the stabilization effect of active sulfur molecules of each alkylating agent containing the new tyrosine derivative was evaluated. Oxidized glutathione tetrasulfide (GS-SS-SG) was used as a model compound for the active sulfur molecules.
# The following were mixed: 50 μL of 200 mM phosphate buffer (pH 7.0) (final concentration: 100 mM), 5 μL of 20 mM alkylating agent (TME-IAM, HPE-IAM, MBB, IAM) or DMSO (final concentration: 1 mM), 10 μL of 100 μM GS-SS-SG (final concentration: 10 μM), and 35 μL of ultrapure water; and the mixture was incubated at 37° C. while shielding light. One, 2, 3, and 4 hours after the start of the reaction, 10 μL of the reaction solution and 90 μL of 0.1% formic acid were mixed, thereby terminating the reaction. By performing the LC-MS/MS by using unreacted 1 μM GS-SS-SG as standard, a residual amount of the GS-SS-SG in the reaction solution was analyzed.
# [3] = reactivity with hydrogen sulfide (Na2S), adducts by LC-ESI-MS/MS; format: physicochemical; conditions: 0.1 mM or 1 mM agent, 0.1 mM Na2S, one hour at 37° C.; FIG. 12
# Protocol: The incubation of 0.1 mM or 1 mM TME-IAM (right side in FIG. 12) or MBB (left side in FIG. 12) was performed for one hour at 37° C. under the existence of 0.1 mM Na2S. As a result, the HS-adduct and the bis-S-adduct in the reaction mixture were respectively detected by the LC-ESI-MS/MS analysis.
# The reaction mixture was separated by the Alliance e2695 system equipped with a YMC-Triart C18 column (inside diameter. 50×2.0 mm) and was then eluted with a linear gradient (30-99% for 5 minutes) by using methanol as a mobile phase under the existence of 0.1% FA (formic acid) at a flow speed of 0.3 mL/min at 40° C.
# [4] = 37° C., neutral pH (pH 7.0); stated as known; cited from earlier work
# [5] = GS-SS-SG protection effect of N-iodoacetyl tyrosine; format: physicochemical; conditions: compared with TME-IAM; FIG. 13
# From the text: Incidentally, N-iodoacetyl tyrosine is expressed with the following chemical formula.
# [6] = reactivity of alkylating agents with cysteine (LC-MS/MS of residual cysteine and cysteine adducts); format: physicochemical; conditions: 1 mM alkylating agent, 0.1 mM cysteine, phosphate buffer pH 7.5, 37° C., 1, 3 and 8 hours; FIG. 5
# Protocol: Next, the reactivity between the tyrosine derivative according to the present invention and the active sulfur species was examined.
# The following were mixed: 50 μL of 200 mM phosphate buffer (pH 7.5) (final concentration: 50 mM), 2 μL of 100 mM alkylating agent (TME-IAM, TEE-IAM, NAT-IAM, HPE-IAM) or DMSO (final concentration: 1 mM), 2 μL of 10 mM cysteine (final concentration: 0.1 mM), and 146 μL of ultrapure water, and the mixture was incubated at 37° C. while shielding light. One, 3, and 8 hours after the start of the reaction, 10 μL of the reaction solution and 90 μL of 0.1% formic acid were mixed, thereby terminating the reaction. By performing the LC-MS/MS by using unreacted 10 μM cysteine as standard, a residual amount of the cysteine in the reaction solution was analyzed and the generation of cysteine adducts by various kinds of alkylating agents was analyzed.
# [7] = pH influence test for the GS-SS-SG protection effect; format: physicochemical; conditions: one hour, FIG. 7
# Protocol: Next, the pH influence of the GS-SS-SG protection effect of TME-IAM was evaluated. It has been clarified that the active sulfur molecules GS-SS-SG are stable under acid conditions, while they are very unstable under alkali conditions.
# The following were mixed: 50 μL of 200 mM phosphate buffer (pH 7.0, 7.5, 8.0) (final concentration: 100 mM) and 5 μL of 20 mM TME-IAM solution (final concentration: 1 mM), 10 μL of 100 μM GS-SS-SG (final concentration: 10 μM), and 35 μL of ultrapure water; and the mixture was incubated at 37° C. while shielding light. One hour after the start of the reaction, 10 μL of the reaction solution and 90 μL of 0.1% formic acid were mixed, thereby terminating the reaction. By performing the LC-MS/MS analysis by using unreacted 1 μM GS-SS-SG as standard, a residual amount of GS-SS-SG in the reaction solution was analyzed.
# [8] = stabilization of oxidized glutathione polysulfides with different numbers of sulfur atoms; format: physicochemical; conditions: 1 mM TME-IAM, 10 μM GS-SSS-SG, pH 7.0, 37° C., 30 minutes after the processing; FIG. 9
# Protocol: It has been made clear that compounds with different quantities of sulfur atoms included in the molecules exist in the active sulfur molecules. In general, the compound including a larger number of sulfur atoms has higher reactivity and has unstable molecules. So, the active sulfur molecules stabilization effect of TME-IAM was analyzed by using the active sulfur molecules with different quantities of the contained sulfur atoms. For this analysis, oxidized glutathione pentasulfide (GS-SSS-SG) and oxidized glutathione trisulfide (GS-S-SG) were used in addition to GS-SS-SG.
# The following were mixed: 50 μL of 200 mM phosphate buffer (pH 7.0) (final concentration: 100 mM) and 5 μL of […] TME-IAM solution (final concentration: 1 mM), 10 μL of 100 μM oxidized form glutathione polysulfide (GS-SSS-SG, GS-SS-SG, GS-S-SG) (final concentration: 10 μM), and 35 μL of ultrapure water; and the mixture was incubated at 37° C. while shielding light. […] By performing the LC-MS/MS analysis by using each unreacted 1 μM oxidized form glutathione polysulfide (GS-SSS-SG, GS-SS-SG, GS-S-SG) as standard, a residual amount of the oxidized form glutathione polysulfide GS-SSS-SG, GS-SS-SG, GS-S-SG) in the reaction solution was analyzed.
# [9] = reaction mole ratio (processing concentration) influence test for the GS-SS-SG protection effect; format: physicochemical; conditions: 400-fold higher concentration than GS-SS-SG (10 μM), pH 7.0, 37° C., one hour; FIG. 8
# Protocol: In order to detect the active sulfur molecules with high sensitivity, it is important to form a stable derivative. In order to do so, it is necessary to add a high-concentration alkylating agent to a specimen; and it is known that the addition of the high-concentration alkylating agent promotes the decomposition of the active sulfur molecules (NPL 1). So, processing concentration dependency of the active sulfur molecules stabilization activity of TME-IAM was analyzed by using the active sulfur molecules GS-SS-SG.
# The following were mixed: 50 μL of 200 mM phosphate buffer (pH 7.0) (final concentration: 100 mM) and 5-20 μL of a TME-IAM solution (final concentration: 0.25, 0.5, 1, 2, 4 mM), 10 μL of 100 μM GS-SS-SG (final concentration: 10 μM), and 20-35 μL of ultrapure water; and the mixture was incubated at 37° C. while shielding light. One hour after the start of the reaction, 10 μL of the reaction solution and 90 μL of 0.1% formic acid were mixed, thereby terminating the reaction. By performing the LC-MS/MS analysis by using unreacted 1 μM GS-SS-SG as standard, a residual amount of GS-SS-SG in the reaction solution was analyzed.
# [10] = esterase-dependent by-product formation in mice liver homogenate in 80% methanol; format: in vitro ADME; conditions: mice liver tissues homogenized in 80% methanol containing 1 mM TME-IAM, one hour at 37° C.; FIG. 11B
# Protocol: (§1) The following test was conducted with regard to cell permeability and esterase sensitivity of TME-IAM. FIG. 11 illustrates representative mass chromatographs of (A) HEK (human embryonic kidney) 293T cells and (B) mice liver homogenate which were processed with TME-IAM.
# (§2) After processing the HEK 293T cells for one hour at 37° C. by using 1 mM TME-IAM, they were homogenized by ultrasonication in 80% methanol. The mice liver tissues were also homogenized by ultrasonication in 80% methanol containing 1 mM TME-IAM and were incubated for one hour at 37° C. After centrifugal separation of each of them, the obtained supernatant was collected and then diluted to 10 times by using 0.1% FA (formic acid).
# (§3) Next, the mixture was made to undergo the LC-ESI-MS/MS analysis and individual by-products driving from TME-IAM, its glutathione adduct (GS-AM-TME), and esterase dependency cleavage were detected. They are Tyr-IAM ((2-iodoacetyl)-I-tyrosine) and GS-AM-Tyr (GSH adduct of (2-iodoacetyl)-1-tyrosine), respectively.
# Accordingly, in order to evaluate the possibility of forming these derivatives when in vivo samples are used for the reactivity sulfur metabolome analysis, mice liver tissues were prepared in 80% methanol containing 1 mM TME-IAM, homogenized, and incubated for one hour at 37° C., and the obtained samples were analyzed by LC-ESI-MS/MS.
# [11] = test system: HEK (human embryonic kidney) 293T cells; assay: cell permeability and esterase sensitivity in HEK 293T cells; format: cell-based; conditions: 1 mM TME-IAM, one hour at 37° C., FIG. 11A
# Protocol: as §1, §2, §3
smiles,measurement,setting,value
"O=C(CI)NCCc1ccc(O)cc1 [HPE-IAM, f-(4-hydroxyphenyl) ethyl iodoacetamide, reference compound]",amount of HS− (bis-S adduct) decomposition product,[1],prominently higher than the amount of the product detected by using TME-IAM
same,active sulfur molecules stabilization (inhibition of GS-SS-SG autolysis),[2],inhibited significantly
"Cc1c(C)n2c(CBr)c(C)c(=O)n2c1=O [MBB, monobromobimane, reference compound]",reactivity with hydrogen sulfide,[3],react with hydrogen sulfide and form the bis-S-adduct
same,effect on decomposition of GS-SS-SG,[4],decomposition is promoted
O=C(CI)N[C@@H](Cc1ccc(O)cc1)C(=O)O [N-iodoacetyl tyrosine],GS-SS-SG protection effect,[5],same level of the GS-SS-SG protection effect as that of TME-IAM
CC(=O)NC(Cc1ccc(O)cc1)C(=O)NC(=O)CI (stereo not drawn) [NAT-IAM],reactivity with the thiol group (cysteine),[6],lower reactivity with cysteine than that of TME-IAM and HPE-IAM
CCOC(=O)C(Cc1ccc(O)cc1)NC(=O)CI (stereo not drawn) [TEE-IAM],reactivity with the thiol group (cysteine),[6],lower reactivity with cysteine than that of TME-IAM and HPE-IAM
"COC(=O)[C@H](Cc1ccc(O)cc1)NC(=O)CI [TME-IAM, N-iodoacetyl tyrosine methyl ester]",reactivity with hydrogen sulfide,[3],react with hydrogen sulfide and form the bis-S-adduct
same,amounts of CysSSH and CysSSSH detected,[1],significantly larger than those detected by using HPE-IAM
same,reactivity with the thiol group (cysteine),[6],same level of reactivity with the thiol group (cysteine) as that of HPE-IAM
same,GS-SS-SG remained,"[7]; 1 mM TME-IAM, 10 μM GS-SS-SG, weakly alkaline solution (pH 8.0), 37° C.",approximately 70%
same,GS-SS-SG remaining compared with HPE-IAM,"[7]; pH 8.0, 37° C.",higher value than that of the system to which the publicly known iodoacetamide derivative HPE-IAM was added
same,GS-SS-SG remained,[2]; incubation for 4 hours,approximately 80%
same,active sulfur molecules stabilization (inhibition of GS-SS-SG autolysis),[2],high active sulfur molecules stabilization activity
same,decomposition suppression of GS-SSS-SG,[8],predominant decomposition suppression
same,reduction of GS-SS-SG at high alkylating agent concentration,[9],any significant reduction of GSSSSG was not observed
same,esterase-dependent by-product Tyr-IAM in samples,[10],rarely detected
same,cell permeability,[11],can permeate through cell membranes
